Results on six compounds are retold here after ChEMBL document CHEMBL4354827, “Discovery of Novel, Potent, Brain-Permeable, and Orally Efficacious Positive Allosteric Modulator of α7 Nicotinic Acetylcholine Receptor [4-(5-(4-Chlorophenyl)-4-methyl-2-propionylthiophen-3-yl)benzenesulfonamide]: Structure-Activity Relationship and Preclinical Characterization” (J Med Chem, 2020).

The structures appear in SMILES notation.

Series [1] in a line: Drug level in Sprague-Dawley rat cerebrospinal fluid at 3 mg/kg, po. Conditions: in vivo. The class given is ADME, organism-based.
A short description of series [2]: Drug concentration in Sprague-Dawley rat brain at 3 mg/kg, po after 1 hr. The class given is ADME, organism-based. Conditions: read-out: Drug uptake.
The nature of series [3]: Drug concentration in Sprague-Dawley rat plasma at 3 mg/kg, po after 1 hr. The class given is ADME, organism-based.
Series [4] can be described thus: Ratio of drug level in Sprague-Dawley rat brain to plasma at 3 mg/kg, po after 1 hr. The class given is ADME, organism-based. Conditions: brain and plasma, read-out: BPR.
Series [5] can be described thus: Drug level in DBA/2 mouse brain at 0.3 mg/kg, iv after 10 mins. It counts as ADME, organism-based. As to conditions: read-out: Drug uptake.
A short description of series [6]: Drug level in DBA/2 mouse brain at 0.3 mg/kg, iv after 90 mins. Conditions: read-out: Drug uptake. The class given is ADME, organism-based.
Series [7] in a line: Drug level in NSA mouse brain at 0.3 mg/kg, po after 120 to 150 mins. It counts as ADME, organism-based. Conditions: in vivo, read-out: Drug uptake.
Series [8] is described as follows: Drug concentration in Swiss mouse brain at 40 mg/kg, sc after 30 mins by LC-MS analysis. The class given is ADME, organism-based. Conditions: read-out: Drug uptake.
Series [9] is described as follows: Drug concentration in Swiss mouse plasma at 40 mg/kg, sc after 30 mins by LC-MS analysis. It counts as ADME, organism-based.
A short description of series [10]: Ratio of drug level in Swiss mouse brain to plasma at 40 mg/kg, sc after 30 mins by LC-MS analysis. The class given is ADME, organism-based. Conditions: brain and plasma, read-out: BPR.
In series [11] the test system is Rattus norvegicus. Kind of series: Memory enhancement effect in time-delay induced Wistar rat model of amnesia assessed as exploration time for object1 in acquisition trial at 3 mg/kg, po administered as single dose and measured on day 8 by novel object recognition test (reference value: 13.95 sec). It counts as functional.
In series [12] the test system is Rattus norvegicus. Nature of the series: Memory enhancement effect in time-delay induced Wistar rat model of amnesia assessed as exploration time for object2 in acquisition trial at 3 mg/kg, po administered as single dose and measured on day 8 by novel object recognition test (reference value: 16.33 sec). The class given is functional.
Series [13] concerns Rattus norvegicus. Nature of the series: Memory enhancement effect in time-delay induced Wistar rat model of amnesia assessed as exploration time for familiar object in retention trial at 3 mg/kg, po administered as single dose and measured on day 9 by novel object recognition test (reference value: 13.05 sec). It counts as functional.
Series [14] concerns Rattus norvegicus. Kind of series: Memory enhancement effect in time-delay induced Wistar rat model of amnesia assessed as increase in exploration time for novel object in retention trial at 3 mg/kg, po administered as single dose and measured on day 9 by novel object recognition test (reference value: 12.06 sec). The class given is functional.
The subject of series [15] is Rattus norvegicus. Kind of series: Memory enhancement effect in scopolamine-induced Wistar rat model of amnesia assessed as exploration time for object1 in acquisition trial at 0.15 mg/kg, po administered as single dose and measured on day 8 by novel object recognition test (reference value: 16.11 sec). The class given is functional.
For series [16], the system named is Rattus norvegicus. Nature of the series: Memory enhancement effect in scopolamine-induced Wistar rat model of amnesia assessed as exploration time for object2 in acquisition trial at 0.15 mg/kg, po administered as single dose and measured on day 8 by novel object recognition test (reference value: 15.63 sec). The class given is functional.
Series [17] relates to Rattus norvegicus. Nature of the series: Memory enhancement effect in scopolamine-induced Wistar rat model of amnesia assessed as exploration time for familiar object in retention trial at 0.15 mg/kg, po administered as single dose and measured on day 9 by novel object recognition test (reference value: 8.59 sec). The class given is functional.
For series [18], the system named is Rattus norvegicus. Kind of series: Memory enhancement effect in scopolamine-induced Wistar rat model of amnesia assessed as increase in exploration time for novel object in retention trial at 0.15 mg/kg, po administered as single dose and measured on day 9 by novel object recognition test (reference value: 12.09 sec). The class given is functional.
Series [19] has as its system Rattus norvegicus. Kind of series: Memory enhancement effect in time-delay induced Wistar rat model of amnesia assessed as exploration time for object1 at 3 mg/kg, po administered as single dose after acquisition trial by novel object recognition test (reference value: 19.09 sec). The class given is functional.
The subject of series [20] is Rattus norvegicus. Nature of the series: Memory enhancement effect in time-delay induced Wistar rat model of amnesia assessed as exploration time for object2 at 3 mg/kg, po administered as single dose after acquisition trial by novel object recognition test (reference value: 21.07 sec). The class given is functional.
Series [21] has as its system Rattus norvegicus. Kind of series: Memory enhancement effect in time-delay induced Wistar rat model of amnesia assessed as exploration time for familiar object at 3 mg/kg, po administered as single dose after acquisition trial by novel object recognition test (reference value: 10.6 sec). The class given is functional.
For series [22], the system named is Rattus norvegicus. Kind of series: Memory enhancement effect in time-delay induced Wistar rat model of amnesia assessed as exploration time for novel object at 3 mg/kg, po administered as single dose after acquisition trial by novel object recognition test (reference value: 12.81 sec). It counts as functional.
Series [23] deals with Rattus norvegicus. Kind of series: Memory enhancement effect in time-delay induced Wistar rat model of amnesia assessed as exploration time for object1 in acquisition trial at 0.05 mg/kg, po for 7 days and measured on day 8 by novel object recognition test (reference value: 13.73 sec). The class given is functional.
Series [24] concerns Rattus norvegicus. Nature of the series: Memory enhancement effect in time-delay induced Wistar rat model of amnesia assessed as exploration time for object2 in acquisition trial at 0.05 mg/kg, po for 7 days and measured on day 8 by novel object recognition test (reference value: 11.76 sec). The class given is functional.
Series [25] concerns Rattus norvegicus. Nature of the series: Memory enhancement effect in time-delay induced Wistar rat model of amnesia assessed as exploration time for familiar object in retention trial at 0.05 mg/kg, po for 7 days and measured on day 8 by novel object recognition test (reference value: 10.20 sec). The class given is functional.
In series [26] the test system is Rattus norvegicus. Nature of the series: Memory enhancement effect in time-delay induced Wistar rat model of amnesia assessed as exploration time for novel object in retention trial at 0.05 mg/kg, po for 7 days and measured on day 8 by novel object recognition test (reference value: 15.37 sec). It counts as functional.
Series [27] concerns Rattus norvegicus. Kind of series: Memory enhancement effect in scopolamine-induced Wistar rat model of amnesia assessed as exploration time for object1 in acquisition trial at 0.05 mg/kg, po for 7 days and measured on day 8 by novel object recognition test (reference value: 16.11 sec). The class given is functional.
Series [28] has as its system Rattus norvegicus. Nature of the series: Memory enhancement effect in scopolamine-induced Wistar rat model of amnesia assessed as exploration time for object2 in acquisition trial at 0.05 mg/kg, po for 7 days and measured on day 8 by novel object recognition test (reference value: 15.63 sec). It counts as functional.
Series [29] relates to Rattus norvegicus. Nature of the series: Memory enhancement effect in scopolamine-induced Wistar rat model of amnesia assessed as exploration time for familiar object in retention trial at 0.05 mg/kg, po for 7 days and measured on day 8 by novel object recognition test (reference value: 8.59 sec). The class given is functional.
The test system of series [30] is Rattus norvegicus. Nature of the series: Memory enhancement effect in scopolamine-induced Wistar rat model of amnesia assessed as exploration time for novel object in retention trial at 0.05 mg/kg, po for 7 days and measured on day 8 by novel object recognition test (reference value: 12.09 sec). The class given is functional.
Series [31] concerns Rattus norvegicus. Nature of the series: Improvement in social recognition time delay-induced Sprague-Dawley rat model of amnesia assessed as increase in reduction in social investigation time at 3 mg/kg, po administered as single dose prior to 1 hr training and measured after 30 mins (reference value: 0.39%). It counts as functional. The arrangement: scale not given: the % may be the effect or the level left.

The test system of series [32] is Rattus norvegicus. Nature of the series: Improvement in social recognition scopolamine-induced Sprague-Dawley rat model of amnesia assessed as increase in reduction in social investigation time at 3 mg/kg, po administered as single dose prior to 1 hr training and measured after 30 mins (reference value: 9.81%). The class given is functional. The arrangement: scale not given: the % may be the effect or the level left.

Series [33] deals with Rattus norvegicus. Nature of the series: Improvement in social recognition time delay-induced Sprague-Dawley rat model of amnesia assessed as increase in reduction in social investigation time at 0.15 mg/kg, po for 7 days and measured on day 9 (reference value: -0.5%). The arrangement: scale not given: the % may be the effect or the level left. The class given is functional.

Series [34] has as its system Rattus norvegicus. Nature of the series: Improvement in social recognition scopolamine-induced Sprague-Dawley rat model of amnesia assessed as increase in reduction in social investigation time at 0.15 mg/kg, po for 7 days measured after 24 hrs (Rvb =6.59%). It counts as functional. The arrangement: scale not given: the % may be the effect or the level left.
The nature of series [35]: Drug level in Wistar rat brain at 3 mg/kg, po after 2 hrs by LC-MS/MS analysis. It counts as ADME, organism-based. Conditions: read-out: Drug uptake.
A short description of series [36]: Drug concentration in Wistar rat plasma at 3 mg/kg, po after 2 hrs by LC-MS/MS analysis. It counts as ADME, organism-based.
The nature of series [37]: Ratio of drug level in brain to plasma in Wistar rat at 3 mg/kg, po after 2 hrs by LC-MS/MS analysis. It counts as ADME, organism-based. Conditions: brain and plasma, read-out: BPR.
Series [38] in a line: Drug level in rat plasma at 10 mg/kg, ip after 120 mins by HPLC-LC/MS analysis. The class given is ADME, organism-based.
Series [39] is described as follows: Ratio of drug level in rat brain to plasma at 10 mg/kg, ip by HPLC-LC/MS analysis. It counts as ADME, organism-based. As to conditions: brain and plasma, read-out: BPR.

Consider `COc1ccc(Cl)cc1C(=O)N[C@@H]1[C@@H](c2ccc(S(N)(=O)=O)cc2)C1(C)C`, for which the Drug uptake in series [1] amounted to 12.1 ng/mL.
As for `COc1cc(OC)c(NC(=O)Nc2cc(C)on2)cc1Cl`, the concentration at 1 h in series [2] was found to be 50.8 ng/g; in [3], 43.1 ng/mL. Further, in series [4], the Kp at 1 h came to 1.18.
As to `Cc1cc(/C(=C/Nc2ccc(Cl)cc2)C(=O)Nc2ccc(Cl)cc2)on1` [AVL-3288], the concentration at 10 min in series [5] came out at 1000 nM. Moreover, in series [6], the concentration at 1.5 h amounted to 300 nM. For the same compound, the concentration in series [7] lay within 150 to 300 nM.
Take `OCc1sc(Nc2ccc(F)c(C(F)(F)F)c2)nc1-c1ccncc1`: the values for the concentration at 0.5 h in series [8] and in series [9] were 1910 ng/g and 5920 ng/mL, respectively. Moreover, the Kp at 0.5 h in series [10] stood at 0.3.
In the case of `CCC(=O)c1cc(-c2ccc(Cl)cc2)n(-c2ccc(S(N)(=O)=O)cc2)c1C`, the Time in the series with Rattus norvegicus [11] came to 25.62 s; in the series on Rattus norvegicus [12] it was 20.37 s; in the series on Rattus norvegicus [13] it was 11.47 s; with Rattus norvegicus [14], 28.31 s; with Rattus norvegicus [15], 14.7 s; in the series on Rattus norvegicus [16], 14.75 s. Besides, the Time with Rattus norvegicus [17] was determined as 5.7 s; in the series with Rattus norvegicus [18], 16.33 s; in the series on Rattus norvegicus [19], 12.7 s; with Rattus norvegicus [20], 17.17 s; in the series on Rattus norvegicus [21] it was 8.05 s; in the series on Rattus norvegicus [22], 14.61 s. Moreover, the Time in the series on Rattus norvegicus [23] stood at 11.58 s; in the series on Rattus norvegicus [24], 12.59 s; in the series on Rattus norvegicus [25], 10.19 s; in the series with Rattus norvegicus [26], 14.16 s; with Rattus norvegicus [27], 14.7 s; in the series on Rattus norvegicus [28] it was 14.75 s. The Time is 5.7 s with Rattus norvegicus [29] and 16.33 s in the series on Rattus norvegicus [30]. The Activity with Rattus norvegicus [31] stood at 35.28%; in the series with Rattus norvegicus [32], 50.67%; with Rattus norvegicus [33], 65.75%; in the series with Rattus norvegicus [34], 31.8%. Also, the figures for the concentration at 2 h in [35] and in series [36] were 110 to 140 nM and 700 to 1050 nM, respectively. The Kp at 2 h in [37] was in the range of 0.1 to 0.2.
With `O=C(Nc1cc(Cl)ccc1O)Nc1cc(C(F)(F)F)ccc1Cl`, the concentration at 2 h in series [38] came to 172 ng/mL. Further, in series [39], the Kp is 0.5.
